IC50 data for one compound are collected here from ChEMBL document CHEMBL6078616, “Seven-membered N-heterocycles as approved drugs and promising leads in medicinal chemistry as well as the metal-free domino access to their scaffolds” (Eur J Med Chem, 2024).

One assay deals with Histone deacetylase 2 (Homo sapiens, UniProt Q92769). Briefly: Inhibition of HDAC2 (unknown origin).
The next assay deals with T1, Histone deacetylase 8 (Homo sapiens, UniProt Q9BY41).
T1 sequence (Q9BY41 whole entry): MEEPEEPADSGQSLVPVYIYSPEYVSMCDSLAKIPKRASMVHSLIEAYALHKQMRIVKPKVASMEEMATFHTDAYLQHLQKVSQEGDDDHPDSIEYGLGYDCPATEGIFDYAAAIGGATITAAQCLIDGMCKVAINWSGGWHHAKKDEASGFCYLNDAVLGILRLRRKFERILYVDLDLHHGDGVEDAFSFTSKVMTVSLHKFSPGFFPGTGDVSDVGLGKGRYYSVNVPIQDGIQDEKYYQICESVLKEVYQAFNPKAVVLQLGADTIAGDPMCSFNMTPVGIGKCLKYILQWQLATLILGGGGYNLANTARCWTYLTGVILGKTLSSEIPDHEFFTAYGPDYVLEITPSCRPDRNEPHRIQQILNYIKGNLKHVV
Briefly: Inhibition of HDAC8 (unknown origin).

The next assay addresses Histone deacetylase 9 (Homo sapiens, UniProt Q9UKV0). In words: Inhibition of HDAC9 (unknown origin).
In assay [1] the target is T2, Protein deacetylase HDAC6 (Homo sapiens, UniProt Q9UBN7).
T2 sequence (Q9UBN7 whole entry): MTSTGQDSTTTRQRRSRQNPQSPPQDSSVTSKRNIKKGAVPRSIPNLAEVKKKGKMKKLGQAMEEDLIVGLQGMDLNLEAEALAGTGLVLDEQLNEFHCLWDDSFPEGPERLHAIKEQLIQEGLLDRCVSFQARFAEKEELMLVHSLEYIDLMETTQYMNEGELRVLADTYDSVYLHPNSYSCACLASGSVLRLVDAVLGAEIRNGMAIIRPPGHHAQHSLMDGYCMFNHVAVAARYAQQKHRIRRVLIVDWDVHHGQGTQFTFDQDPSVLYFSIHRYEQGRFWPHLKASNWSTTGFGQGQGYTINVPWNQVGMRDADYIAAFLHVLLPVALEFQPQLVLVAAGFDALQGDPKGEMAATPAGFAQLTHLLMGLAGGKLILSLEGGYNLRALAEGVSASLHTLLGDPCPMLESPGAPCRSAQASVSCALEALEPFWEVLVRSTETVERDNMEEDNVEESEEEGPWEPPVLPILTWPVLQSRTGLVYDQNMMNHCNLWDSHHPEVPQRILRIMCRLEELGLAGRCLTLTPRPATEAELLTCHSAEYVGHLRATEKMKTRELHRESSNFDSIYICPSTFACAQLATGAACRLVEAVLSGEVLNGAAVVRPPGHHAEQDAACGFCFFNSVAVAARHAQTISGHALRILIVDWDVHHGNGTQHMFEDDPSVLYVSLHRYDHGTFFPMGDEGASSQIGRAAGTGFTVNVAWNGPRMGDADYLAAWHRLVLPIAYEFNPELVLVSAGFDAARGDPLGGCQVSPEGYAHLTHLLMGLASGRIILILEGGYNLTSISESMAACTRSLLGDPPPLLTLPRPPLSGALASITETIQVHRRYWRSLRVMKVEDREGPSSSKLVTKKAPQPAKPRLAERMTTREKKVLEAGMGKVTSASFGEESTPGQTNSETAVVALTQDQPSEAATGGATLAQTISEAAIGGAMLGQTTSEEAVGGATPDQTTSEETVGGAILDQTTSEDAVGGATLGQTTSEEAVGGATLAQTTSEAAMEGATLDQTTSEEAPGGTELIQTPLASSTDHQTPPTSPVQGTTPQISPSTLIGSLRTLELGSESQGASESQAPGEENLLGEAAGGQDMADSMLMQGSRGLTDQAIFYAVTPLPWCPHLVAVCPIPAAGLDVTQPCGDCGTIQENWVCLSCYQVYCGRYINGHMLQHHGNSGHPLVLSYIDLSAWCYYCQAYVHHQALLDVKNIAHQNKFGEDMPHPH
In words: Inhibition of HDAC6 (unknown origin).

The target in a further assay is Histone deacetylase 1 (Homo sapiens, UniProt Q13547). In words: Inhibition of HDAC1 (unknown origin).
Sequence of Histone deacetylase 1 (Q13547 whole entry): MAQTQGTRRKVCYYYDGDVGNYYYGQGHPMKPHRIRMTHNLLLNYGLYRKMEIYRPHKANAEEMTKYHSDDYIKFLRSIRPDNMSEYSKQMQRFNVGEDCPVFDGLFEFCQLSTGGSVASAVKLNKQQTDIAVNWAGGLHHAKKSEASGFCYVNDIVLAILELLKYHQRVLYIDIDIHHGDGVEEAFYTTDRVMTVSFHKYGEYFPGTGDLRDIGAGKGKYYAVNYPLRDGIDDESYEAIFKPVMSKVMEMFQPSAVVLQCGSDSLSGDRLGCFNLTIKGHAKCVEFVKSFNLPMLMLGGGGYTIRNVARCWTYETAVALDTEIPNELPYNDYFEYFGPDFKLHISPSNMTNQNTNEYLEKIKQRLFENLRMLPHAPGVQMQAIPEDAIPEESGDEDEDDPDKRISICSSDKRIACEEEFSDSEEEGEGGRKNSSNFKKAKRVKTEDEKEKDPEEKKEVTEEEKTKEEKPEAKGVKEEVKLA
The next assay deals with Histone deacetylase 4 (Homo sapiens, UniProt P56524). In words: Inhibition of HDAC4 (unknown origin).
Sequence of Histone deacetylase 4 (P56524 whole entry): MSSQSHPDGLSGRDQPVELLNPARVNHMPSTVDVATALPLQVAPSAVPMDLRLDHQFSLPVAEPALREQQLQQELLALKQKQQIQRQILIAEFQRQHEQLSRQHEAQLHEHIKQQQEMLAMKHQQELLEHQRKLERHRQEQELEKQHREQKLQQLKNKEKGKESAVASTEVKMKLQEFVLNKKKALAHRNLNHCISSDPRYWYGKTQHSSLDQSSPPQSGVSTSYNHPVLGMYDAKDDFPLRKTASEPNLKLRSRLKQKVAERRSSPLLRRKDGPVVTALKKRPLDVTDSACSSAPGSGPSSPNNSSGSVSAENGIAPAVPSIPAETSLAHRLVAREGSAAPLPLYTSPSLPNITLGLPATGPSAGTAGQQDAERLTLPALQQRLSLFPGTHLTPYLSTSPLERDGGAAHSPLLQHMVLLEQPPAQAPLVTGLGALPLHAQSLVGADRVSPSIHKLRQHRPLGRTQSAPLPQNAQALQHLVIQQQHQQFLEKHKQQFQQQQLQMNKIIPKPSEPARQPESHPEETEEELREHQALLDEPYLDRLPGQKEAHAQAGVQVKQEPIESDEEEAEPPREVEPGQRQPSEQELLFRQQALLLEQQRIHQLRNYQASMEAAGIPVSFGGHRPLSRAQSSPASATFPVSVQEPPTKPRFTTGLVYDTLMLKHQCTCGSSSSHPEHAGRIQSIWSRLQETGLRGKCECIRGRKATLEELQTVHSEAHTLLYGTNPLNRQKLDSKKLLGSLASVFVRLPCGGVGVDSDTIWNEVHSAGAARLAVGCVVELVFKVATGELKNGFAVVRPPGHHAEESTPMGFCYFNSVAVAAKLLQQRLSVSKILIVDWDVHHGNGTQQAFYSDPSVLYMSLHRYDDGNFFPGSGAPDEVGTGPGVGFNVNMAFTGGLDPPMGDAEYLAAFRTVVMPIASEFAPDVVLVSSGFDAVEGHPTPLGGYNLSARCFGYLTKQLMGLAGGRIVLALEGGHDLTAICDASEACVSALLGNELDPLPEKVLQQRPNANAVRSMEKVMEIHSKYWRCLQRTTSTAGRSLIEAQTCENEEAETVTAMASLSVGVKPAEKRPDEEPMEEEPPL
In a further assay the target is T3, Histone deacetylase 7 (Homo sapiens, UniProt Q8WUI4).
T3 sequence (Q8WUI4 whole entry): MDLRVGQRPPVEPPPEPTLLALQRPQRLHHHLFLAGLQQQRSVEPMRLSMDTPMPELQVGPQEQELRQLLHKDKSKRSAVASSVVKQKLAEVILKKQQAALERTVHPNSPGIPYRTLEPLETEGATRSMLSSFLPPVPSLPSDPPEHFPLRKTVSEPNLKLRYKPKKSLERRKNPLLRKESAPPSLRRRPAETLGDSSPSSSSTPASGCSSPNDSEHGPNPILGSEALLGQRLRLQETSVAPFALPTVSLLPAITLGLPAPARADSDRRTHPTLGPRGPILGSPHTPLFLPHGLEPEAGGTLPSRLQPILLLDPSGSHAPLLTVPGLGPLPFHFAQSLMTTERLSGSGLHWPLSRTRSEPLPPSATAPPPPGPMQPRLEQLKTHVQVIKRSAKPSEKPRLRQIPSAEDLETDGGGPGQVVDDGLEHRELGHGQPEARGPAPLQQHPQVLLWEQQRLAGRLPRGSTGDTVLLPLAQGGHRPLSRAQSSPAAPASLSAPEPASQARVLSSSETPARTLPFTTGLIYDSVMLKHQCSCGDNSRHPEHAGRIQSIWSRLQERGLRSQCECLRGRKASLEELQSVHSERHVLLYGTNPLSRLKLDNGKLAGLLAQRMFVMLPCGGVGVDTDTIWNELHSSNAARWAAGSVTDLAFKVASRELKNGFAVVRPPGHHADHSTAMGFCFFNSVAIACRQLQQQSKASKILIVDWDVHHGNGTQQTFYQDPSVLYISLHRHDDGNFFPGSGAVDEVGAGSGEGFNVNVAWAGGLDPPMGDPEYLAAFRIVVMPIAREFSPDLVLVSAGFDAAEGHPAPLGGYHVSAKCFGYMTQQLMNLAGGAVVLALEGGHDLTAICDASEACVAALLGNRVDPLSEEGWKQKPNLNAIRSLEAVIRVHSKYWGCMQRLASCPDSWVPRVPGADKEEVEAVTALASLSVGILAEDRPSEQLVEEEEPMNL
Briefly: Inhibition of HDAC7 (unknown origin).

A further assay addresses Histone deacetylase 5 (Homo sapiens, UniProt Q9UQL6). In words: Inhibition of HDAC5 (unknown origin).

By IC50 is commonly meant the concentration that inhibits the measured activity by half.

Sequence of Histone deacetylase 2 (Q92769 whole entry): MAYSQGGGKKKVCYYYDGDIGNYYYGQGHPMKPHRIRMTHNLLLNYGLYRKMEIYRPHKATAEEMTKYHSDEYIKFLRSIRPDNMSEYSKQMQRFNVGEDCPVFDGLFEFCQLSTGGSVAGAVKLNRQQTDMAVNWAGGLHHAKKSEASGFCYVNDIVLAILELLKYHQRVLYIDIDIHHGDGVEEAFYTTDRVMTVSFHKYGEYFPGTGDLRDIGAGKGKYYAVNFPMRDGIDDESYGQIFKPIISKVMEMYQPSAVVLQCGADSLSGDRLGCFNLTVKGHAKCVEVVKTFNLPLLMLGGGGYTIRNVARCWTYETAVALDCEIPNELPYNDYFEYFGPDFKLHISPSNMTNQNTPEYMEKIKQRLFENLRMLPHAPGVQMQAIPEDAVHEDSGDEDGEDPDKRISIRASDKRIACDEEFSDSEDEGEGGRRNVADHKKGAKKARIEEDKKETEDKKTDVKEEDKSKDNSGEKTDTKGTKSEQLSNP
Sequence of Histone deacetylase 5 (Q9UQL6 whole entry): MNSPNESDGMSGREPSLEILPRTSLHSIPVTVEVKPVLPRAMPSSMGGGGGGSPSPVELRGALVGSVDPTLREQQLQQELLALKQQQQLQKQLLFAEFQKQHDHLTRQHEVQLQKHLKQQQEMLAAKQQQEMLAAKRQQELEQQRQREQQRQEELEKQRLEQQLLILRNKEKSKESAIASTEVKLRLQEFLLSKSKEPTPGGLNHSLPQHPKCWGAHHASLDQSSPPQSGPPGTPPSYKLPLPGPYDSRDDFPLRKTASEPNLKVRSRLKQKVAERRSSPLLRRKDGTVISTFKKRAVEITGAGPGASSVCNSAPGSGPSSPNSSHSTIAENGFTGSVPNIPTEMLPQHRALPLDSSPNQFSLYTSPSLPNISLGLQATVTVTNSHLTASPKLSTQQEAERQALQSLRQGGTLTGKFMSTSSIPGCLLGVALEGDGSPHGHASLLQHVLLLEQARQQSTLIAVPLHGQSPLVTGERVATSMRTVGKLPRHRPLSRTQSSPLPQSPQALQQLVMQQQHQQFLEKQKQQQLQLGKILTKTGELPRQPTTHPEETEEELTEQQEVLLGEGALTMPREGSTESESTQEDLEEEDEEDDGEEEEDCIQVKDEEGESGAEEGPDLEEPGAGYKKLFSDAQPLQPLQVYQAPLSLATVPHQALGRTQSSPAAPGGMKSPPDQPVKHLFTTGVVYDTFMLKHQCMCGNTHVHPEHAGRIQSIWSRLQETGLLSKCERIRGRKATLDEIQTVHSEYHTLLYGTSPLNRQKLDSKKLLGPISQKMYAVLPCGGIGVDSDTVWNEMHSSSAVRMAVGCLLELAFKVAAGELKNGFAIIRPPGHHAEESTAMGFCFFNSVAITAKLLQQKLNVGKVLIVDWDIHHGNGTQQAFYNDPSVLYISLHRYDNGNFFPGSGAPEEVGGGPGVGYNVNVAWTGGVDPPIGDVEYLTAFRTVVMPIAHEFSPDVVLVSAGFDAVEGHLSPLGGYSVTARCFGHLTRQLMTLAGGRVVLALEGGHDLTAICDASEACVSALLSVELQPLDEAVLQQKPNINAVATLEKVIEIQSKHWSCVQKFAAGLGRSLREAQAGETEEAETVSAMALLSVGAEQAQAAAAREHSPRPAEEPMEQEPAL
Sequence of Histone deacetylase 9 (Q9UKV0 whole entry): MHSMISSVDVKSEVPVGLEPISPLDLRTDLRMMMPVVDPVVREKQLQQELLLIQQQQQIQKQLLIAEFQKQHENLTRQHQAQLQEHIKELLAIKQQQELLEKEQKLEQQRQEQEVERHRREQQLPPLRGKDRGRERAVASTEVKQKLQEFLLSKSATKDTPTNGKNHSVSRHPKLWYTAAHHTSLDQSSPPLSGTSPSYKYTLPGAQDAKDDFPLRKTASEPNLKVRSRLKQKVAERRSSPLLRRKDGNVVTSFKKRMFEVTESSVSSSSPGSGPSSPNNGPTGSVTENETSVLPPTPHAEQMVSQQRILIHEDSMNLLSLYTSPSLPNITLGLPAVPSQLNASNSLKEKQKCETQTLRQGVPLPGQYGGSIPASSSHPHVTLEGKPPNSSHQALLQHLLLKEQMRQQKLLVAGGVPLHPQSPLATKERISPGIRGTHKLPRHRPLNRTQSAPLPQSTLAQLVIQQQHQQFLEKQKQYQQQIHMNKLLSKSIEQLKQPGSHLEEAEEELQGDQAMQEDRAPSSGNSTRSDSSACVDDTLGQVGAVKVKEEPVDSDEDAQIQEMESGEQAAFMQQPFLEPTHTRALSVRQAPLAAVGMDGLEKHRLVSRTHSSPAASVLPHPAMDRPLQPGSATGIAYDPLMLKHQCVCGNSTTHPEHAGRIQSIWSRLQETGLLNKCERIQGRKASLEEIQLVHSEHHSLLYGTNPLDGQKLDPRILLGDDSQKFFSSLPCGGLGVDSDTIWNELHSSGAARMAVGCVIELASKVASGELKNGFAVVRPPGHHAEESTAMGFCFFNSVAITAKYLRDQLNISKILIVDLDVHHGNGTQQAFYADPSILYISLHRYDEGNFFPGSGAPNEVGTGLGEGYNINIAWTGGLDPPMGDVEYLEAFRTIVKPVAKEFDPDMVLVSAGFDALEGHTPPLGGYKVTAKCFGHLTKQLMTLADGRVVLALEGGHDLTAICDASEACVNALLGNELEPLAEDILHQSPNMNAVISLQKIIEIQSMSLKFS

Regarding `O=C(NO)c1ccc(CN2c3ccccc3[S+]([O-])C[C@H]3CCCC[C@H]32)cc1` (stereo partly drawn), the IC50 against Histone deacetylase 2 was 26 µM; against Histone deacetylase 8, 2.9 µM; at Histone deacetylase 9 it was 8.9 µM; in assay [1], 0.1 µM; at Histone deacetylase 1 it was 4.9 µM; at Histone deacetylase 4 it was over 30 µM. Further, the IC50 against Histone deacetylase 7 is over 30 µM; at Histone deacetylase 5 it was 12 µM.
